The text below walks through data of PMC3479139, “Diverse Small Molecule Inhibitors of Human Apurinic/Apyrimidinic Endonuclease APE1 Identified from a Screen of a Large Public Collection” (PLoS ONE, 2012).

The target of experiment [1] is T1, APE1 (Homo sapiens, UniProt P27695).
T1 construct: made in house
As to the kind of experiment: Fluorescence polarization (FP) displacement assay of APE1 binding to AP-DNA probe.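 Note: TAMRA 5′-labeled duplex DNA with THF abasic site (5 nM) and APE1 (20 nM), Mg2+-free buffer, 15 min at room temperature, inhibition seen as lowered polarization.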 The following applies: read-out: FP IC50.
Procedure: Double-stranded oligodeoxynucleotide containing tetrahydrofuran (THF) abasic site labeled with TAMRA at the 5′-end was used as the labeled binding probe. Inhibition of APE1 binding to labeled probe was detected by a decrease in the fluorescence polarization (FP) of the fluorophore. Briefly, 4 µL mixture of 20 nM APE1 and 5 nM probe contained in the enzymatic assay buffer from which Mg^2+ was omitted, was dispensed into 1536-well Greiner black solid bottom plates. Compounds (23 nL) were transferred via pintool, and after a 15-minute incubation at room temperature, fluorescence polarization was measured in a ViewLux High-throughput CCD imager (480 nm excitation and 540 nm emission) to determine the degree of probe displacement caused by the test compounds.

The next experiment has as its target T2, E. coli Endo IV (Escherichia coli, UniProt P0A6C1).
T2 construct: made in house
Kind of experiment: E. coli Endo IV profiling counterscreen.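 Note: selectivity counterscreen of candidate APE1 inhibitors against the bacterial endonuclease Endo IV, run in the same assay format as the primary APE1 high-throughput screen.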 The experiment is classed as biochemical. The following applies: read-out: EndoIV IC50.

Experiment [2] has as its target T1, APE1. As to the kind of experiment: Fluorogenic kinetic qHTS APE1 incision assay (primary screen and retest of cherrypicked samples).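 Note: purified APE1 cleaving a fluorophore/dark-quencher labelled 17-mer duplex DNA bearing a tetrahydrofuran AP site, fluorescence rise followed kinetically over the first 2 min, inhibition normalized to controls.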 It is filed as biochemical. For orientation: In qHTS, concentration-response curves come from the screen itself.
Experiment [3] addresses double-stranded 17-mer DNA fragment. Kind of experiment: ThO (Thiazole Orange) DNA displacement assay.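 Note: miniaturized displacement of the intercalating dye from unlabeled duplex DNA, used to flag nonspecific DNA binders, chiefly intercalators, groove binders may be missed.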 It is filed as binding. The following applies: read-out: ThO-DNA binding IC50.
The target of experiment [4] is T1, APE1. As to the kind of experiment: Gel-based APE1 incision assay with fluorescence (TAMRA) detection. The experiment is classed as biochemical.
Procedure: To test the compounds’ inhibitory activity after the primary screen, two assays designed to monitor the cleavage of substrate to product through electrophoretic separation were utilized. The radiotracer incision assay, utilizing a ^32P-labeled substrate, was performed essentially as described [21], [31], [32]. Incision reactions utilizing ^32P-labeled substrate were carried out for 5 min at 37°C. After the addition of an equal volume of stop buffer (0.05% bromophenol blue and xylene cyanol, 20 mM EDTA, 95% formamide), the substrate and product were separated on a standard polyacrylamide denaturing gel and quantified by PhosphorImager analysis [32]. […] APE1 cleavage of the substrate results in a 18-mer TAMRA-labeled fragment which was separated by a non-denaturing polyacrylamide gel electrophoresis and quantitated in a Gel Doc XR imaging system, BioRad (Hercules, CA). The advantage of this assay is that it can be used in a relatively high throughput mode with the inhibitors tested at a range of concentrations (0.17 µM to 125 µM was used here). APE1 (0.15 nM) was added to a reaction mixture of 20 µL containing assay buffer (40 mM HEPES pH 7.5, 50 mM NaCl, 1 mM MgCl2 and 2 mM DTT), and labeled ds DNA substrate (final 75 nM). The mixture was incubated at RT for 15 min, and the reaction was stopped by the addition 20 µL of 2X dye stop solution (10% glycerol, 20 mM EDTA and bromophenol blue). Then 10 µL of the mixture was resolved on 20% polyacrylamide gel in 1X Tris-borate EDTA running buffer at 250 V for 40 min.
To eliminate false positive hits, all 595 confirmed molecules were tested for their ability to inhibit APE1 incision activity using biochemical assays that involve electrophoretic separation of the substrate and cleavage product.
[5] abbreviates: initial quantitative high-throughput screen, read-out: APE1 qHTS IC50.
Setting [6] is: retest of cherrypicked sample, read-out: APE1 Retest IC50.
[7] abbreviates: estimated IC50, fluorophore detection, entries 113-223, read-out: F-PAGE Assay IC50.
Setting [8] is: entries 113-223: fluorophore detection, estimated IC50, read-out: Gel-based electrophoretic separation assay with fluorophore detection, estimated IC50 (column headed Radiotracer Assay (%Activity)).

SMILES strings stand for the structures.

T1 sequence (P27695 whole entry): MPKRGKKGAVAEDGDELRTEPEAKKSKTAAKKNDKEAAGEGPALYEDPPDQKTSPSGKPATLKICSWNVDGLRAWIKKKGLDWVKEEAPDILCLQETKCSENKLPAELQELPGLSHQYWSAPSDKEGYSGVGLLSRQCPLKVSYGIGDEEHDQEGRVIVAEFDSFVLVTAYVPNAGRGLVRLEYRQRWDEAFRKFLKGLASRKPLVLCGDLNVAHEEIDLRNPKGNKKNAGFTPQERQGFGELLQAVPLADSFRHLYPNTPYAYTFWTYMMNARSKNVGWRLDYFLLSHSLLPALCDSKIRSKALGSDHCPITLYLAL
Source text for E. coli Endo IV: In order to screen out nonselective compounds, such as non-specific DNA binders and inhibitors of related enzymes, we used a miniaturized ThO DNA displacement assay and a counterscreen against the bacterial endonuclease E. coli Endo IV, respectively, following the previously published protocols [21].
To probe the selectivity of the candidate APE1 inhibitors, we tested them against E. coli EndoIV [36], employing the same assay as used in the HTS.

For `COc1ccc(NC(=O)CN(C)C(=O)c2cccc(-n3cccc3)c2)cc1` [MLS001097639], the IC50 at APE1 [1] is greater than 57 µM; at E. coli Endo IV, greater than 57 µM; on APE1 [2] (setting [5]), 2.4 µM; at APE1 [2] (setting [6]), 18.2 µM; in experiment [3] it was greater than 57 µM; at APE1 [4] (setting [7]), 3.5 µM.
In the case of `CCCCN(C(=O)c1cccc(-n2cccc2)c1)c1c(N)n(Cc2ccccc2)c(=O)[nH]c1=O` [MLS001159279], the IC50 on APE1 [1] was greater than 57 µM; at E. coli Endo IV, greater than 57 µM; at APE1 [2] (setting [5]), 2.7 µM; at APE1 [2] (setting [6]), 12.9 µM; in experiment [3], greater than 57 µM; on APE1 [4] (setting [7]), 2.8 µM.
`CCN(CC(=O)Nc1c(F)cccc1F)C(=O)/C=C/c1ccc2ccccc2n1` [MLS001128172]: the IC50 is greater than 57 µM at APE1 [1]; greater than 57 µM at E. coli Endo IV; 1.7 µM at APE1 [2] (setting [5]); 20.4 µM at APE1 [2] (setting [6]); greater than 57 µM in experiment [3]; 4 µM on APE1 [4] (setting [7]).
`O=C(C[C@@H]1C/C=C\C[C@H](Cc2ccc(F)cc2)C(=O)OC[C@@H](Cc2c[nH]c3ccccc23)NC1=O)NCCO` [MLS002320105]: the IC50 on APE1 [1] was greater than 57 µM; at E. coli Endo IV, greater than 57 µM; on APE1 [2] (setting [5]) it was 11.9 µM; in experiment [3], greater than 57 µM; at APE1 [4] (setting [7]), 5.6 µM.
On to `NS(=O)(=O)c1ccc(NC(=O)CSc2nnc(NC3CC3)s2)cc1` [MLS002169032], for which the IC50 on APE1 [1] is greater than 57 µM; on E. coli Endo IV, greater than 57 µM; on APE1 [2] (setting [5]), 10.6 µM; on APE1 [2] (setting [6]), 10.2 µM; in experiment [3], greater than 57 µM; at APE1 [4] (setting [7]) it was 6.3 µM.
For `c1ccc2c(NCCc3c[nH]c4ccccc34)c3ccccc3nc2c1` [MLS001195935], the IC50 is greater than 57 µM on APE1 [1]; greater than 57 µM on E. coli Endo IV; 18.9 µM on APE1 [2] (setting [5]); 18.2 µM on APE1 [2] (setting [6]); 32.4 µM in experiment [3]; 25.1 µM at APE1 [4] (setting [8]).
Consider `CC(=O)c1ccccc1NS(=O)(=O)c1cccc2nsnc12` [MLS001008046], for which the IC50 at APE1 [1] was 28.9 µM; at E. coli Endo IV, greater than 57 µM; on APE1 [2] (setting [5]), 5.3 µM; on APE1 [2] (setting [6]), 8.1 µM; in experiment [3], greater than 57 µM; at APE1 [4] (setting [7]) it was 5.6 µM.
As for `NS(=O)(=O)c1cccc(NC(=O)c2ccc3nc[nH]c3c2)c1` [MLS001177378], the IC50 was greater than 57 µM on APE1 [1]; greater than 57 µM on E. coli Endo IV; 26.7 µM on APE1 [2] (setting [5]); 45.7 µM at APE1 [2] (setting [6]); 32.4 µM in experiment [3]; 12.6 µM on APE1 [4] (setting [8]).
`O=C(c1cccc(-n2cccc2)c1)N1CCN(S(=O)(=O)c2ccccc2)CC1` [MLS001139594]: the IC50 at APE1 [1] was greater than 57 µM; on E. coli Endo IV it was greater than 57 µM; on APE1 [2] (setting [5]), 1.5 µM; on APE1 [2] (setting [6]) it was 11.5 µM; in experiment [3], greater than 57 µM; on APE1 [4] (setting [7]) it was 2.5 µM.
For `COc1cccc(NC(=O)CN(C)C(=O)c2cc3c(s2)CCC3)c1` [MLS001142077], the IC50 at APE1 [1] is greater than 57 µM; at E. coli Endo IV it was greater than 57 µM; on APE1 [2] (setting [5]) it was 10.6 µM; at APE1 [2] (setting [6]), 32.4 µM; in experiment [3], 20.4 µM; at APE1 [4] (setting [8]), 10 µM.
As for `COC(=O)c1ccn(CC(=O)NC2CCCCC2)n1` [MLS001030262], the IC50 at APE1 [1] was greater than 57 µM; at E. coli Endo IV, greater than 57 µM; on APE1 [2] (setting [5]), 29.9 µM; at APE1 [2] (setting [6]) it was 12.9 µM; in experiment [3] it was greater than 57 µM; at APE1 [4] (setting [7]), 5.6 µM.
With `COc1ccc(NC(=O)COC(=O)c2cc3c(s2)CCC3)cc1` [MLS002159150], the IC50 was 36.3 µM on APE1 [1]; greater than 57 µM at E. coli Endo IV; 5.3 µM on APE1 [2] (setting [5]); 11.5 µM at APE1 [2] (setting [6]); greater than 57 µM in experiment [3]; 7.1 µM at APE1 [4] (setting [7]).
Regarding `Cc1ccc(NC(=O)C(c2ccccc2)N2CCN(CC(=O)N3CCOCC3)CC2)cc1Cl` (stereo not drawn) [MLS002162303], the IC50 was greater than 57 µM at APE1 [1]; greater than 57 µM at E. coli Endo IV; 10.6 µM at APE1 [2] (setting [5]); 9.1 µM on APE1 [2] (setting [6]); greater than 57 µM in experiment [3]; 3.5 µM at APE1 [4] (setting [7]).
For `O=C(NC1CC1)C1CCN(S(=O)(=O)c2cc([N+](=O)[O-])ccc2Cl)CC1` [MLS002162311], the IC50 on APE1 [1] is greater than 57 µM; on E. coli Endo IV, greater than 57 µM; on APE1 [2] (setting [5]), 10.6 µM; at APE1 [2] (setting [6]) it was 32.4 µM; in experiment [3] it was 36.3 µM; at APE1 [4] (setting [7]), 8.9 µM.
On to `CN(CC(=O)Nc1cccc(F)c1)C(=O)c1cccc(-n2cccc2)c1` [MLS001071694], for which the IC50 on APE1 [1] is 22.9 µM; at E. coli Endo IV, greater than 57 µM; at APE1 [2] (setting [5]) it was 3.4 µM; at APE1 [2] (setting [6]), 5.1 µM; in experiment [3] it was greater than 57 µM; on APE1 [4] (setting [7]), 5 µM.
In the case of `CC(C)(C)OC(=O)C[C@@H]1C/C=C\C[C@@H](CC(=O)NCCO)C(=O)N[C@H](Cc2c[nH]c3ccccc23)COC1=O` [MLS002320206], the IC50 on APE1 [1] is greater than 57 µM; at E. coli Endo IV it was greater than 57 µM; at APE1 [2] (setting [5]), 15 µM; on APE1 [2] (setting [6]) it was 16.2 µM; in experiment [3], greater than 57 µM; on APE1 [4] (setting [8]), 20 µM.
For the compound `CCOC(=O)C1CCCN(C(=O)c2cc(-c3ccco3)nc3ccccc23)C1` (stereo not drawn) [MLS002245402], the IC50 is greater than 57 µM on APE1 [1]; greater than 57 µM on E. coli Endo IV; 8.4 µM at APE1 [2] (setting [5]); 18.2 µM on APE1 [2] (setting [6]); 32.4 µM in experiment [3]; 4 µM at APE1 [4] (setting [7]).
For `CC(=O)Nc1ccc(S(=O)(=O)NCCC(=O)OCC(=O)N2CCN(C(=O)c3ccco3)CC2)cc1` [MLS001078987], the IC50 was 20.4 µM at APE1 [1]; greater than 57 µM on E. coli Endo IV; 16.8 µM on APE1 [2] (setting [5]); greater than 57 µM in experiment [3]; 22.4 µM at APE1 [4] (setting [8]).
As to `O=C(C[C@@H]1C/C=C\C[C@H](NC(=O)OCC2c3ccccc3-c3ccccc32)C(=O)OC[C@@H]2CCCN2C1=O)NCCO` [MLS002320455], the IC50 was greater than 57 µM at APE1 [1]; greater than 57 µM on E. coli Endo IV; 9.5 µM on APE1 [2] (setting [5]); 10.2 µM at APE1 [2] (setting [6]); greater than 57 µM in experiment [3]; 22.4 µM at APE1 [4] (setting [8]).
On to `CCOc1ccc(NC(=O)CN(C)C(=O)C2COc3ccccc3O2)cc1OCC` (stereo not drawn) [MLS002248300], for which the IC50 on APE1 [1] was greater than 57 µM; at E. coli Endo IV, greater than 57 µM; on APE1 [2] (setting [5]), 21.2 µM; at APE1 [2] (setting [6]), 32.4 µM; in experiment [3], greater than 57 µM; on APE1 [4] (setting [8]), 20 µM.
On to `COC(=O)c1cc(NC(=O)Cc2cccs2)cc(C(=O)OC)c1` [MLS001211293], for which the IC50 at APE1 [1] was greater than 57 µM; at E. coli Endo IV, greater than 57 µM; on APE1 [2] (setting [5]), 13.4 µM; in experiment [3], greater than 57 µM; on APE1 [4] (setting [7]), 7.1 µM.
`Cc1cccc(NC(=O)CNC(=O)CCc2nc3sc4c(c3c(=O)[nH]2)CCCC4)c1C` [MLS001156641]: the IC50 on APE1 [1] is greater than 57 µM; on E. coli Endo IV it was greater than 57 µM; on APE1 [2] (setting [5]) it was 10.6 µM; on APE1 [2] (setting [6]), 36.3 µM; in experiment [3], 45.7 µM; on APE1 [4] (setting [7]), 4 µM.
For the compound `Cc1sc2ncnc(SCC(=O)Nc3ncccc3O)c2c1C` [MLS002181609], the IC50 on APE1 [1] is 20.4 µM; on E. coli Endo IV, greater than 57 µM; at APE1 [2] (setting [5]), 29.9 µM; on APE1 [2] (setting [6]) it was 10.2 µM; in experiment [3], greater than 57 µM; at APE1 [4] (setting [8]), 14.1 µM.
